From US5238832A, “Aryl aliphatic acids” (Board of Governors of Wayne State University, priority 1992, dated 1993)

Target: T1, 12-lipoxygenase (Sus scrofa, UniProt P16469)
T1 construct: porcine leukocyte cytosol containing 12-lipoxygenase; from tissue; host or cells: porcine leukocyte cytosol
T1 sequence (P16469 1-663): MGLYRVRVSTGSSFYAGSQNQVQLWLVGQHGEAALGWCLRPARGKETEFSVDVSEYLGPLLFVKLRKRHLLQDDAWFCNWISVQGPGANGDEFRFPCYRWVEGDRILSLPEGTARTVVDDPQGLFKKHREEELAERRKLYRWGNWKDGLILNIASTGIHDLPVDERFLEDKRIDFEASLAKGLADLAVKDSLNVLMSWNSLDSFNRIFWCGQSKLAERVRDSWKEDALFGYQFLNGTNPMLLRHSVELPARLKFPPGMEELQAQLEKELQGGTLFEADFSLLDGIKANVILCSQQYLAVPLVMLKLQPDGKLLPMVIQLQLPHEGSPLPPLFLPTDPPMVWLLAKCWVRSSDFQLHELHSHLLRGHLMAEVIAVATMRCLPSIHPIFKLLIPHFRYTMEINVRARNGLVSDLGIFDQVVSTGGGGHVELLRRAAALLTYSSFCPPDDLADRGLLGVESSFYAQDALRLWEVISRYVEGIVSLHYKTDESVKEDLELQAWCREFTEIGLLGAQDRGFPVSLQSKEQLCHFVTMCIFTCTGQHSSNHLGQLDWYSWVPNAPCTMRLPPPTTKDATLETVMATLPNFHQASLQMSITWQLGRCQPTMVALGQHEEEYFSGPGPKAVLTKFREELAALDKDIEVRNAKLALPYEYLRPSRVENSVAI
Assay: Inhibition of 12-lipoxygenase activity by aryl aliphatic acids (porcine leukocyte cytosol, conversion of [1-14C] arachidonic acid to 12-HETE)
Assay type: biochemical
Conditions: porcine leukocyte cytosol 0.075 mg/ml protein; 0.1 M HEPES, pH 8.0; 5 min preincubation, 15 min at 37° C.; arachidonic acid given as 5 mM
Procedure: The standard assay procedure is as follows: […] [1^-14 C] Arachidonic acid was added (final concentration of […]) and the reactions were incubated for 15 minutes at 37° C. and terminated by the addition of HCl. […] Samples were extracted with water-saturated ethyl acetate and the extracts were spotted onto TLC plates. The plates were developed with dichloromethane/ethyl acetate/acetic acid in a ratio of 70:30:1. […] The percentage conversion to 12-HETE was calculated from the percentage of the total ^14 C on the TLC plate that coelutes with a standard of 12-HETE.

| Compound | IC50 |
| --- | --- |
| CCCCCCCCC#CCOCc1ccc(CCC(=O)O)cc1 [Compound 26, 3-[4-(2-Undecynyloxymethyl)phenyl]propanoic Acid] | 100 nM |
| CCCCCCCCCCc1ccc(COCc2ccc(CCC(=O)O)cc2)cc1 [Compound 30, 3-[4-[4-(Decylphenylmethyl)oxymethyl]phenyl]propanoic Acid] | 5000 nM |
| CCCCCCCCCCCCC#CCOCc1ccc(CCC(=O)O)cc1 [Compound 27, 3-[4-(2-Pentadecynyloxymethyl)phenyl]propanoic Acid] | 320 nM |
| CCCCCCC#CCOCc1ccc(CCC(=O)O)cc1 [Compound 25, 3-[4-(2-Nonynyloxymethyl)phenyl]propanoic Acid] | 2000 nM |
| CCCCCCCCCC/C=C\COCc1ccc(CCC(=O)O)cc1 [Compound 31, cis-3-[4-(2-Tridecenyloxymethyl)-phenyl]propanoic Acid] | 1000 nM |
| CCCCCCCCCCC#CCOCc1ccc(CCC(=O)O)cc1 [Compound 24, 3-[4-(2-Tridecynyloxymethyl)phenyl]propanoic Acid] | 35 nM |

Further lines, results first:

| IC50 | Compound |
| --- | --- |
| 280 nM | CCCCCCCCCCC=C=CCOCc1ccc(CCC(=O)O)cc1 [Compound 34, (S)-(+)-3-[4-(2,3-Tetradecadienyloxymethyl)phenyl]propanoic Acid] |
| 450 nM | CCCCCCCCCCC=C=CCOCc1ccc(CCC(=O)O)cc1 [Compound 35, (R)-3-[4-(2,3-Tetradecadienyloxymethyl)] |
| 400 nM | CCCCCCCCCC/C=C/COCc1ccc(CCC(=O)O)cc1 [Compound 32, trans-3-[4-(2-Tridecenyloxymethyl)phenyl]propanoic Acid] |
